Results on 34 compounds are retold here after US5834462A, “Tricyclic heterocyclic sulfonamide and sulfonic ester derivatives” (Eisai Co., Ltd., priority 1993, dated 1998).

Values after ≈ are worked out from the molar mass of the structure shown.

One test relates to KB cells (human nasopharyngeal cancer cells). Briefly: in vitro Antitumor test on KB cells (MTT). Type of test: cell-based. The conditions noted are these: 72 h, 3 days incubation. The protocol: in vitro Antitumor test on KB cells (human nasopharyngeal cancer cells)
KB cells suspended in an RPMI1640 medium (mfd. by Nissui Seiyaku K. K.), which contained 10% of fetal calf serum, 100 U/mi of penicillin, 100 μg/ml of streptomycin, 5×10^-5 M of mercaptoethanol and 1 mM of sodium pyruvate, were inoculated in 1.25×10^3 portions (0.1 ml) into wells of a 96-well flat-bottomed microplate and then incubated in an incubator containing 5% of carbon dioxide at 37° C. for a day.
A compound of the present invention was dissolved in dimethyl sulfoxide in a concentration of 20 mg/ml and diluted with a 10% fetal calf serum-RPMI1640 culture medium to a concentration of 100 μg/ml. By using this concentration as the highest level, threefold serial dilution was performed with a 10% fetal calf serum-RPMI1640 culture medium. Then it was added in 0.1 ml portions into the wells of the above-mentioned plate wherein the KB cells had been incubated followed by incubation in the incubator containing 5% of carbon dioxide at 37° C. for 3 days.
After incubating, an MTT (3-(4,5-dimethylthiazol-2-yl)-2,5-diphenyltetrazolium bromide) solution (3.3 mg/ml) was added in 0.05 ml portions into the wells and the incubation was effected for additional 1 hour. After sucking off the supernatant from each well, the formazane thus formed was dissolved in 0.1 ml of dimethyl sulfoxide. Then the absorbance at 540 nm was measured with a microplate reader and employed as an indication of the vital cell count. In accordance with the following equation, the inhibitory ratio was calculated and the 50% inhibitory concentration (IC50) of the test compound was determined. [formula] T: absorbance of a well containing the test commpound. C: absorbance of a well containing no test compound.
In turn, `COc1ccc(S(=O)(=O)Nc2cccc3c2Nc2ccccc2S3)cc1` [Example 1, 4-Methoxy-N-(10H-phenothiazin-1-yl)benenesulfonamide] registered an IC50 of 0.11 µg/mL (≈ 0.286 µM).
Turning to `COc1ccc(S(=O)(=O)Nc2cccc3c2[nH]c2ccccc23)cc1` [Example 2, N-(9H-Carbazol-1-yl)-4-methoxybenzenesulfornamide], the IC50 is 0.1 µg/mL (≈ 0.284 µM).
In turn, `COc1ccc(S(=O)(=O)Nc2cccc3c(=O)c4ccccc4[nH]c23)cc1` [Example 4, N-(9(10H)-Acridinon-4-yl)-4-methoxyhenzenesulfonamide] gave a 50% inhibitory concentration (IC50) of 0.17 µg/mL (≈ 0.447 µM).
On the same count and under the same terms, the result for `COc1ccc(S(=O)(=O)Nc2cccc3c2Nc2ccccc2O3)cc1` [Example 5, 4-Methoxy-N-(10H-phenoxazin-1-yl)benzenesulfonamide] reads 0.08 µg/mL (≈ 0.217 µM).
In the case of `COc1ccc(S(=O)(=O)Nc2cccc3c2Nc2ccccc2CC3)cc1` [Example 6, N-(10,11-Dihydro-5H-dibenz(b,f)azepin-4-yl)-4-methoxybenzenesulfonamide], the IC50 came out at 0.09 µg/mL (≈ 0.237 µM).
Compound `COc1ccc(S(=O)(=O)Nc2cccc3c2Nc2ccccc2C=C3)cc1` [Example 9, N-(5H-Dibenz[b,f]azepin-4-yl)-4-methoxybenzene-sulfonamilde] came in with an IC50 of 0.23 µg/mL (≈ 0.608 µM).
Regarding `COc1ccc(S(=O)(=O)Nc2cccc3c2NC(=O)c2ccccc2O3)cc1` [Example 12, N-(Dibenrz(b,f)(1,4)oxazepin-11(10H)-on-9-yl)-4-methoxybenzenelfonamide], 0.25 µg/mL (≈ 0.631 µM) corresponded to half-maximal inhibition (IC50).
`COc1ccc(S(=O)(=O)Nc2cccc3cc4ccccc4nc23)cc1` [Example 14, N-(4-Acridinyl)-4-methoxybenzenesulfonamide]: the IC50 worked out at 0.026 µg/mL (≈ 0.0713 µM).
The same measure, in the same setting: the result for `COc1ccc(S(=O)(=O)Nc2cccc3c2Nc2ncccc2O3)cc1` [Example 15, 4-Methoxy-N-(10H-pyrido(3,2-b)(1,4)benzoxazin-9-yl)-benzenesulfonamide] reads 0.15 µg/mL (≈ 0.406 µM).
For `COc1ccc(S(=O)(=O)Nc2cccc3c2Nc2cccnc2O3)cc1` [Example 16, 4-Methoxy-N-(5H-pyrido(2,3-b)(1,4)benzoxazin-6-yl)-benzenesulfonamide], the concentration for half-maximal inhibition (IC50) was 0.022 µg/mL (≈ 0.0596 µM).
In turn, `COc1ccc(S(=O)(=O)Nc2cccc3c2Nc2ccccc2CO3)cc1` [Example 17, N-(5,11-Dihydrpdibenz(b,e)(1,4)oxazepin-6-yl)-4-methoxybenzenesulfonamide] showed a half-inhibitory concentration (IC50) of 0.03 µg/mL (≈ 0.0784 µM).
Take `COc1ccc(S(=O)(=O)Nc2cccc3c(=O)c4cc(O)ccc4[nH]c23)cc1` [Example 20, N-(7-Hydroxy-9(10H)-acridinon-4-yl)-4-methoxybenzene-sulfonamide]: it took 0.11 µg/mL (≈ 0.277 µM) to reach half-maximal inhibition (IC50).
`COc1ccc(S(=O)(=O)Nc2cccc3c2Nc2ccc(O)cc2O3)cc1` [Example 22, N-(7-Hvdroxy-10H-phenoxain-1-yl)-4-methoxybenzene-sulfonamide]: the IC50 is 0.17 µg/mL (≈ 0.442 µM).
The compound `COc1ccc(S(=O)(=O)Nc2cccc3oc4cc(=O)ccc-4nc23)cc1` [Example 24, 4-Methoxy-N-(3H-phenoxazin-3-on-9-yl)benzene-sulfonamide] registered an IC50 of 0.0061 µg/mL (≈ 0.016 µM).
As for `COc1ccc(S(=O)(=O)Nc2cccc3sc4cc(=O)ccc-4nc23)cc1` [Example 25, 4-Methoxy-N-(3-phenothiazin-3-on-9-yl)benzene-sulfonamide], it took 0.016 µg/mL (≈ 0.0402 µM) to reach half-maximal inhibition (IC50).
Same read-out and setting: to `COc1ccc(S(=O)(=O)Nc2cccc3c2Nc2ccccc2CS3)cc1` [Example 26, N-(5,11-Dihydrobenzo(b,e)(1,4)thiazepin-6-yl)-4-metboxybenzenesulfonamide] belongs 0.15 µg/mL (≈ 0.376 µM); to `COc1ccc(S(=O)(=O)Nc2cccc3c2Nc2cc(F)c(F)cc2S3)cc1` [Example 28, N-(7,8-Difluoro-10-pbenothiazin-1-yl)-4-methoxy-benenesulfonamide], 0.069 µg/mL (≈ 0.164 µM); to `COc1ccc(S(=O)(=O)Nc2cccc3c2N(C)c2ccccc2O3)cc1` [Example 29, 4-Methoxy-N-(10-methyl-10H-phenoxazin-1-yl)benzene-sulfonamide], 0.11 µg/mL (≈ 0.288 µM).
Compound `COc1ccc(S(=O)(=O)Nc2cccc3c2Nc2ccc(C)cc2CN3)cc1` [Example 31, N-10,11-Dihydro-2-methyl-5H-dihenzn(b,e)(1,4)-diazepin-6-yl)-4-methoxyhenenesulfonamide] returned an IC50 of 0.27 µg/mL (≈ 0.683 µM).
`COc1ccc(S(=O)(=O)Nc2cccc3c2Nc2ccc(CO)cc2O3)cc1` [Example 33, N-(7-Hydroxymethyl-10-phenoxazin-1-yl)-4-methoxy-benzenesulfonamide] had an IC50 of 0.043 µg/mL (≈ 0.108 µM).
For `Nc1ccc(S(=O)(=O)Nc2cccc3c2Nc2ccccc2S3)cc1` [Example 34, 4-Amino-N-(10-phenothiazin-1-yl)benzenesulfonamide], half-maximal inhibition (IC50) was put at 0.25 µg/mL (≈ 0.677 µM).
As to `COc1ccc(S(=O)(=O)Nc2cccc3c2Nc2cncnc2S3)cc1` [Example 35, 4-Melthoxy-N-(5H-pyrimido(4,5-b)(1,4)benzothizin-6-yl)benzenesulfonamide], half-maximal inhibition (IC50) required 0.25 µg/mL (≈ 0.647 µM).
As to `Cc1ccc(S(=O)(=O)Nc2cccc3c2Nc2ccc(O)cc2CO3)cc1` [Example 38, N-(5,11-Ditiydro-2-hydroxydihenz(b,e)(1,4)oxazepin-6-yl)-4-methylbenzenesulfonamide], the 50% inhibitory concentration (IC50) stood at 0.047 µg/mL (≈ 0.123 µM).
With `COc1ccc(S(=O)(=O)Nc2cc(F)cc3c2Nc2ccc(O)cc2CO3)cc1` [Example 39, N-(5,11-Dihydro-8-fluoro-2-hdroxydihenz(b,e)(1,4)-oxazepin-6-yl)-4-methoxybenrzenesilfonamide], the IC50 came out at 0.26 µg/mL (≈ 0.624 µM).
The same measure, in the same setting: the result for `COc1ccc(S(=O)(=O)Nc2cccc3c2Nc2ccccc2OC3)cc1` [Example 40, N-(5,11-Dihydrodibenz(b,e)(1,4)oxalelpin-4-yl)-4-methoxybenzenesulfonamide] reads 0.032 µg/mL (≈ 0.0837 µM); that for `CCN1Cc2ccccc2Nc2c(NS(=O)(=O)c3ccc(OC)cc3)cccc21` [Example 41, N-(10,11-Dihydro-10-ethyl-5H-dihenzo(b,e)(1,4)-diazepin-6-yl)-4-meltoxybenzenesulfonamnide], 0.28 µg/mL (≈ 0.684 µM).
On the same count and under the same terms, to `Cc1ccc(S(=O)(=O)Nc2cccc3c2Nc2ccc(O)cc2CO3)s1` [Example 42, N-(5,11-Dihydro-2-hydroxydihenz(b,e)(1,4)oxazepin-6-yl)-5-methyl-2-thiopbhenesulfonamide] belongs 0.13 µg/mL (≈ 0.335 µM); to `COc1ccc(S(=O)(=O)Nc2cccc3c2Nc2ccc(NC(C)=O)cc2CN3)cc1` [Example 43, N-(2-Acetylamino-10,11-dibydro-5H-dibhenz(b,e)(1,4)-diazepin-6-yl)-4-methoxybenzenesulfonamide], 0.22 µg/mL (≈ 0.502 µM); to `COc1ccc(S(=O)(=O)Nc2cccc3c2Nc2ccc(OCCCO)cc2CN3)cc1` [Example 44, N-(10,11-Dihydro-2-(3-hydroxypropyloxy)-5H-dibenzo-(b,e)(1,4)(diazepin-6-yl)4-metbhoxybenzenesulfonamide], 0.077 µg/mL (≈ 0.169 µM).
On the same count and under the same terms, the result for `COc1ccc(S(=O)(=O)Nc2cccc3c2Nc2ccc(F)c(O)c2CO3)cc1` [Example 45, N-(5,11-Dihydro-2-fluoro-1-hydroxydibenz(b,e)-(1,4)oxazepin-6-yl)-4-methoxybenzenesulfonamide] reads 0.016 µg/mL (≈ 0.0384 µM).
In turn, `COc1ccc(S(=O)(=O)Nc2cccc3c2Nc2c(Cl)cc(F)c(O)c2CN3)cc1` [Example 46, N-(4-Chloro-10,11-dihvdro-2-fluoro-1-hvdroxy-5-dibenzo(b,e)(1,4)diazepin-6-yl)-4-methoxybenzene-sulfonamide] yielded an IC50 of 0.25 µg/mL (≈ 0.556 µM).
In turn, `COc1ccc(S(=O)(=O)Nc2cccc3c2Nc2ccc(F)c(O)c2CN3)cc1` [Example 47, N-(10,11-Dihydro-2-fluoro-1-hydroxy-5H-dibenzo(b,e)-(1,4)diazepin-6-yl)-4-methoxybenzenesulfonamide] showed an IC50 of 0.078 µg/mL (≈ 0.188 µM).
`COc1ccc(S(=O)(=O)Nc2cccc3c2Nc2ccc(C#N)cc2CN3)cc1` [Example 48, N-(2-Cyano-10,11-dihydro-5H-dibenzo(b,e)(1,4)diazepin-6-yl)-4-methoxybenzenesulfonamide] yielded an IC50 of 0.028 µg/mL (≈ 0.0689 µM).
Same read-out and setting: to `COc1ccc(S(=O)(=O)Nc2cccc3c2Nc2ccc(F)cc2NC3)cc1` [Example 49, N-(10,11-Dihydro-8-fluoro-5H-dibenzo(b,e)(1,4)-diazepin-4-yl)-4-methoxybenzenesulfonamide] belongs 0.08 µg/mL (≈ 0.2 µM).

For another test, the system named is M5076 (mouse reticulum cell sarcoma). Briefly: in vivo antitumor test on M5076 transplanted in BDF1 mice. The conditions noted are these: 50 mg/kg/day, intraperitoneal, 4 times every other day from 10th day. The source says:
in vivo antitumor test on M5076 (mouse reticulum cell sarcoma)
1×10^6 M5076 cells were subcutaneously transplanted into the lateral parts of BDF1 mice (aged 6 to 9 weeks, female). A compound of the present invention was suspended in physiological saline containing 3.5% of dimethyl sulfoxide and 6.5% of Tween 80 and a given amount of the obtained suspension was intraperitoneally administered to the animals 4 times from the 10th day after the transplantation once a day every other day. The control group comprised 10 to 12 animals, while the test group comprised 5 or 6 animals.
On the 21st day after the transplantation, tumors were taken out and weighed. Then the tumor multiplication inhibitory ratio of each test group based on the control group was determined in accordance with the following equation. [formula] T: average tumor weight of the test group. C: average tumor weight of the control group.
On to `COc1ccc(S(=O)(=O)Nc2cccc3c2Nc2ccccc2S3)cc1` [Example 1, 4-Methoxy-N-(10H-phenothiazin-1-yl)benenesulfonamide], for which the “Inhibitory ratio (tumor weight, 21st day)” value is 73% and the “Survival ratio on 21st day” value was 100%.
On the same counts, the results for `COc1ccc(S(=O)(=O)Nc2cccc3c2Nc2cc(F)c(F)cc2S3)cc1` [Example 28, N-(7,8-Difluoro-10-pbenothiazin-1-yl)-4-methoxy-benenesulfonamide] are 82% and 100%.

Still in this test, the particulars now being: 100 mg/kg/day, intraperitoneal, 4 times every other day from 10th day.
`COc1ccc(S(=O)(=O)Nc2cccc3c2Nc2ccccc2CO3)cc1` [Example 17, N-(5,11-Dihydrpdibenz(b,e)(1,4)oxazepin-6-yl)-4-methoxybenzenesulfonamide]: the “Inhibitory ratio (tumor weight, 21st day)” value is 81% and the “Survival ratio on 21st day” value is given as 100%.

For orientation: IC50 means the concentration at which inhibition is half-maximal.
